From patent publication US12139520B2 (priority 2020, dated 2024)
Bridge positions count the residues as written; N and C are the ends. Square brackets hold non-standard residues; d marks the D form. Peptide text beside a SMILES is read from it. Hyp = O=C(O)[C@@H]1C[C@@H](O)CN1; Cit = NC(=O)NCCC[C@H](N)C(=O)O

Experiment: Physical stability of peptide analogues (Thioflavin T fibrillation)
Assay type: physicochemical
Conditions: maximum ThT signal normalized between hAMY maximum and buffer background; 40° C., shaking, four days; pH 7 per table title
Procedure, shortened: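 Samples are stressed at 40 °C for four days, being shaken at 700 rpm before each 10-min fluorescence reading of 4 μM Thioflavin T. Buffers were pH 4 acetate or pH 7 phosphate. Reported values are smoothed maximum ThT signals as a percentage of the hAMY-to-background range.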

Structure (SMILES) | Max ThT signal (%)
CC[C@H](C)[C@H](NC(=O)[C@H](CCC(N)=O)NC(=O)[C@H](Cc1c[nH]cn1)NC(=O)[C@H](C)NC(=O)[C@H](CC(C)C)NC(=O)[C@H](CCCNC(=N)N)NC(=O)[C@H](CCC(N)=O)NC(=O)[C@@H](NC(=O)[C@@H](NC(=O)[C@@H]1CSSC[C@H](NC(=O)CN)C(=O)N[C@@H](CCCNC(=N)N)C(=O)N[C@@H]([C@@H](C)O)C(=O)NCC(=O)N[C@@H]([C@@H](C)O)C(=O)N1)[C@@H](C)O)C(C)C)C(=O)N[C@@H](Cc1ccc(O)cc1)C(=O)N[C@@H](CCC(N)=O)C(=O)N[C@@H](Cc1ccccc1)C(=O)N[C@H](C(=O)N[C@@H](CC(=O)O)C(=O)N[C@@H](CCCCN)C(=O)N[C@@H](CC(=O)O)C(=O)N[C@@H](CCCCN)C(=O)N[C@@H](CC(=O)O)C(=O)N[C@@H](CC(N)=O)C(=O)N[C@H](C(=O)N[C@@H](C)C(=O)N1CCC[C@H]1C(=O)N[C@@H](CCCNC(=N)N)C(=O)N[C@@H](CO)C(=O)N[C@@H](CC(N)=O)C(=O)N[C@H](C(=O)N[C@@H](CO)C(=O)N1CCC[C@H]1C(=O)N[C@@H](CC(N)=O)C(=O)NCC(=O)N[C@@H](Cc1ccc(O)cc1)C(N)=O)C(C)C)C(C)C)[C@@H](C)O [compound 172] (H-GCRTGTCTVQRLAHQIYQFTDKDKDNVAPRSNVSPNGY-NH2; disulfide 2-7; N-terminus assumed) | 13.900
CC[C@H](C)[C@H](NC(=O)[C@H](CCC(N)=O)NC(=O)[C@H](Cc1c[nH]cn1)NC(=O)[C@H](C)NC(=O)[C@H](CC(C)C)NC(=O)[C@H](CCCNC(=N)N)NC(=O)[C@H](CCC(N)=O)NC(=O)[C@@H](NC(=O)[C@@H](NC(=O)[C@@H]1CSSC[C@H](NC(=O)CN)C(=O)N[C@@H](CCCNC(=N)N)C(=O)N[C@@H]([C@@H](C)O)C(=O)NCC(=O)N[C@@H]([C@@H](C)O)C(=O)N1)[C@@H](C)O)C(C)C)C(=O)N[C@@H](Cc1ccc(O)cc1)C(=O)N[C@@H](CCC(N)=O)C(=O)N[C@@H](Cc1ccccc1)C(=O)N[C@H](C(=O)N[C@@H](CC(=O)O)C(=O)N[C@@H](CCCCN)C(=O)N[C@@H](Cc1ccccc1)C(=O)N[C@@H](CCCCN)C(=O)N[C@@H](CC(=O)O)C(=O)N[C@@H](CC(N)=O)C(=O)N[C@H](C(=O)N[C@@H](C)C(=O)N1CCC[C@H]1C(=O)N[C@@H](CCCNC(=N)N)C(=O)N[C@@H](CO)C(=O)N[C@@H](CCCCN)C(=O)N[C@H](C(=O)N[C@@H](CO)C(=O)N1CCC[C@H]1C(=O)N[C@@H](CCC(N)=O)C(=O)N[C@@H](Cc1ccccc1)C(=O)N1C[C@H](O)C[C@H]1C(N)=O)[C@@H](C)CC)C(C)C)[C@@H](C)O [compound 211] (H-GCRTGTCTVQRLAHQIYQFTDKFKDNVAPRSKISPQF[Hyp]-NH2; disulfide 2-7; N-terminus assumed) | 5.200
CC[C@H](C)[C@H](NC(=O)[C@H](CCC(N)=O)NC(=O)[C@H](Cc1c[nH]cn1)NC(=O)[C@H](C)NC(=O)[C@H](CC(C)C)NC(=O)[C@H](CCCNC(=N)N)NC(=O)[C@H](CCC(N)=O)NC(=O)[C@@H](NC(=O)[C@@H](NC(=O)[C@@H]1CSSC[C@H](NC(=O)CN)C(=O)N[C@@H](CCCNC(=N)N)C(=O)N[C@@H]([C@@H](C)O)C(=O)NCC(=O)N[C@@H]([C@@H](C)O)C(=O)N1)[C@@H](C)O)C(C)C)C(=O)N[C@@H](Cc1ccc(O)cc1)C(=O)N[C@@H](CCC(N)=O)C(=O)N[C@@H](Cc1ccccc1)C(=O)N[C@H](C(=O)N[C@@H](CC(=O)O)C(=O)N[C@@H](CCCCN)C(=O)N[C@@H](CC(=O)O)C(=O)N[C@@H](CCCCN)C(=O)N[C@@H](CC(=O)O)C(=O)N[C@@H](CC(N)=O)C(=O)N[C@H](C(=O)N[C@@H](C)C(=O)N1CCC[C@H]1C(=O)N[C@@H](CCCNC(=N)N)C(=O)N[C@H](C(=O)N[C@@H](CCCCN)C(=O)N[C@H](C(=O)N[C@@H](CO)C(=O)N1CCC[C@H]1C(=O)N[C@@H](CC(N)=O)C(=O)NCC(=O)N[C@@H](Cc1ccc(O)cc1)C(N)=O)[C@@H](C)CC)[C@@H](C)O)C(C)C)[C@@H](C)O [compound 190] (H-GCRTGTCTVQRLAHQIYQFTDKDKDNVAPRTKISPNGY-NH2; disulfide 2-7) | 12.900
CC[C@H](C)[C@H](NC(=O)[C@H](CCC(N)=O)NC(=O)[C@H](Cc1c[nH]cn1)NC(=O)[C@H](C)NC(=O)[C@H](CC(C)C)NC(=O)[C@H](CCCNC(=N)N)NC(=O)[C@H](CCC(N)=O)NC(=O)[C@@H](NC(=O)[C@@H](NC(=O)[C@@H]1CSSC[C@H](NC(=O)CN)C(=O)N[C@@H](CCCNC(=N)N)C(=O)N[C@@H]([C@@H](C)O)C(=O)NCC(=O)N[C@@H]([C@@H](C)O)C(=O)N1)[C@@H](C)O)C(C)C)C(=O)N[C@@H](Cc1ccc(O)cc1)C(=O)N[C@@H](CCC(N)=O)C(=O)N[C@@H](Cc1ccccc1)C(=O)N[C@H](C(=O)N[C@@H](CC(=O)O)C(=O)N[C@@H](CCCCN)C(=O)N[C@@H](CC(=O)O)C(=O)N[C@@H](CCCCN)C(=O)N[C@@H](CC(=O)O)C(=O)N[C@@H](CC(N)=O)C(=O)N[C@H](C(=O)N[C@@H](C)C(=O)N1CCC[C@H]1C(=O)N[C@@H](CCCNC(=N)N)C(=O)N[C@@H](CO)C(=O)N[C@@H](CCCCN)C(=O)N[C@H](C(=O)N[C@@H](CO)C(=O)N1CCC[C@H]1C(=O)N[C@@H](CC(N)=O)C(=O)NCC(=O)N1C[C@H](O)C[C@H]1C(N)=O)C(C)C)C(C)C)[C@@H](C)O [compound 204] (H-GCRTGTCTVQRLAHQIYQFTDKDKDNVAPRSKVSPNG[Hyp]-NH2; disulfide 2-7; N-terminus assumed) | 2.200

The next lines start with the values.

Max ThT signal (%) | Structure (SMILES)
4.700 | CC[C@H](C)[C@H](NC(=O)[C@H](C)NC(=O)CNC(=O)[C@H](CC(=O)O)NC(=O)[C@H](CCCCN)NC(=O)[C@H](CC(=O)O)NC(=O)[C@@H](NC(=O)[C@H](Cc1ccccc1)NC(=O)[C@H](CCC(N)=O)NC(=O)[C@H](Cc1ccc(O)cc1)NC(=O)[C@H](CC(C)C)NC(=O)[C@H](Cc1ccccc1)NC(=O)[C@H](Cc1c[nH]cn1)NC(=O)[C@H](C)NC(=O)[C@H](CC(C)C)NC(=O)[C@H](CCCNC(N)=O)NC(=O)[C@H](CCC(N)=O)NC(=O)[C@@H](NC(=O)[C@@H](NC(=O)[C@@H]1CSSC[C@H](NC(=O)CN)C(=O)N[C@@H](CCCNC(=N)N)C(=O)N[C@@H](Cc2ccccc2)C(=O)NCC(=O)N[C@@H]([C@@H](C)O)C(=O)N1)[C@@H](C)O)C(C)C)[C@@H](C)O)C(=O)N[C@@H](C)C(=O)N1CCC[C@H]1C(=O)N[C@@H](CCCNC(=N)N)C(=O)N[C@H](C(=O)N[C@@H](CCCCN)C(=O)N[C@H](C(=O)NCC(=O)N[C@@H](CO)C(=O)N[C@@H](CCC(N)=O)C(=O)NCC(=O)N[C@@H](Cc1ccc(O)cc1)C(N)=O)[C@@H](C)CC)[C@@H](C)O [compound 282] (H-GCRFGTCTVQ[Cit]LAHFLYQFTDKDGAIAPRTKIGSQGY-NH2; disulfide 2-7; N-terminus assumed)
0.600 | CC[C@H](C)[C@H](NC(=O)[C@H](CCC(N)=O)NC(=O)[C@H](Cc1c[nH]cn1)NC(=O)[C@H](C)NC(=O)[C@H](CC(C)C)NC(=O)[C@H](CCCNC(=N)N)NC(=O)[C@H](CCC(N)=O)NC(=O)[C@@H](NC(=O)[C@@H](NC(=O)[C@@H]1CSSC[C@H](NC(=O)CN)C(=O)N[C@@H](CCCNC(=N)N)C(=O)N[C@@H]([C@@H](C)O)C(=O)NCC(=O)N[C@@H]([C@@H](C)O)C(=O)N1)[C@@H](C)O)C(C)C)C(=O)N[C@@H](Cc1ccc(O)cc1)C(=O)N[C@@H](CCC(N)=O)C(=O)N[C@@H](Cc1ccccc1)C(=O)N[C@H](C(=O)N[C@@H](CC(=O)O)C(=O)N[C@@H](CCCCN)C(=O)N[C@@H](Cc1ccccc1)C(=O)N[C@@H](CCCCN)C(=O)N[C@@H](CC(=O)O)C(=O)N[C@@H](CC(N)=O)C(=O)N[C@H](C(=O)N[C@@H](C)C(=O)N1CCC[C@H]1C(=O)N[C@@H](CCCNC(=N)N)C(=O)N[C@@H](CO)C(=O)N[C@@H](CCCCN)C(=O)N[C@H](C(=O)N[C@@H](CO)C(=O)N1CCC[C@H]1C(=O)N[C@@H](CCC(N)=O)C(=O)N[C@@H](CCSC)C(=O)N1C[C@H](O)C[C@H]1C(N)=O)[C@@H](C)CC)C(C)C)[C@@H](C)O [compound 236] (H-GCRTGTCTVQRLAHQIYQFTDKFKDNVAPRSKISPQM[Hyp]-NH2; disulfide 2-7; N-terminus assumed)
15.700 | CC[C@H](C)[C@H](NC(=O)[C@H](CCC(N)=O)NC(=O)[C@H](Cc1c[nH]cn1)NC(=O)[C@H](C)NC(=O)[C@H](CC(C)C)NC(=O)[C@H](Cc1c[nH]c2ccccc12)NC(=O)[C@H](CCC(N)=O)NC(=O)[C@@H](NC(=O)[C@@H](NC(=O)[C@@H]1CSSC[C@H](NC(=O)CN)C(=O)N[C@@H](CCCNC(=N)N)C(=O)N[C@@H](Cc2ccccc2)C(=O)NCC(=O)N[C@@H]([C@@H](C)O)C(=O)N1)[C@@H](C)O)C(C)C)C(=O)N[C@@H](Cc1ccc(O)cc1)C(=O)N[C@@H](CCC(N)=O)C(=O)N[C@@H](Cc1ccccc1)C(=O)N[C@H](C(=O)N[C@@H](CC(=O)O)C(=O)N[C@@H](CCCCN)C(=O)N[C@@H](CC(=O)O)C(=O)N[C@@H](CCCCN)C(=O)N[C@@H](CC(=O)O)C(=O)N[C@@H](CC(N)=O)C(=O)N[C@H](C(=O)N[C@@H](C)C(=O)N1CCC[C@H]1C(=O)N[C@@H](CCCNC(=N)N)C(=O)N[C@H](C(=O)N[C@@H](CCCCN)C(=O)N[C@H](C(=O)N[C@@H](CO)C(=O)N1CCC[C@H]1C(=O)N[C@@H](CCC(N)=O)C(=O)NCC(=O)N1C[C@H](O)C[C@H]1C(N)=O)[C@@H](C)CC)[C@@H](C)O)C(C)C)[C@@H](C)O [compound 350] (H-GCRFGTCTVQWLAHQIYQFTDKDKDNVAPRTKISPQG[Hyp]-NH2; disulfide 2-7; N-terminus assumed)
